Assay results: patent US20250333394A1, “Tiparp Inhibitor Compounds” (AbbVie Inc., priority 2024, published 2025)

How the values were obtained:
PARP1 GST = PARP1 GST (Homo sapiens (Human), UniProt P09874); assay: TR-FRET binding assay, PARP1; conditions: Probe 2, 2 hours incubation
Procedure: (§1) TR-FRET assays were used to measure the binding of compounds to TIPARP and PARP1, and to characterize biochemical selectivity. Compound stock solutions (10 mM) were serially diluted in 3-fold increments in dimethyl sulfoxide (DMSO). Diluted compounds were dispensed (30 nL) into white ProxiPlate-384-well plates (PerkinElmer, Waltham, MA, USA) using an ECHO® 550 acoustic Labcyte dispenser (Beckman-Coulter Life Sciences, Indianapolis, IN, USA) to achieve a final starting concentration of 30 μM to 0.5 nM in the assay. This was followed by addition of 5 μL of 2× protein/probe mix (Table 2) made in assay buffer (Tris-HCl 50 mM pH 8.0; 5 mM MgCl2; 5 μM ZnCl2; 1 mM DTT (dithiothreitol); 0.15% BSA (bovine serum albumin) (w/v); and 0.01% TritonX-100 (w/v)) at final concentrations listed in Table 2. Subsequently, 5 μL of 2× antibody (Tb-labeled anti-GST antibody, Thermo Fisher Scientific, Waltham, MA, USA) in HEPES buffered saline was added to each well at a final concentration of 1 nM. The samples were then incubated for 2 hours under ambient conditions. Fluorescence was measured and TR-FR ET ratios were determined on an EnVision multimode plate reader (PerkinElmer) using a 520 nanometer (nm) excitation wavelength and collecting fluorescence emission at 495 nm.

DLD-1 parent cells = assay: CellTiter-Glo DLD-1 parent cell assay; assay type: cell-based; conditions: Homo sapiens, 144 h, 6 days, read-out: DLD-1 CTG EC50
Text: (§2) The DLD-1 BRCA2 (−/−) CellTiter-Glo® assay measured the synthetic lethality of PARP1/2 inhibitors and was used as a surrogate to allow measurement of activity of both PARP1 and PARP2 in cells. If PARP1 and PARP2 are inhibited and are trapped onto chromatin during DNA replication, there is replication fork stalling and accumulation of double strand breaks. In BR CA wild-type cells, the resulting double strand DNA breaks are repaired via homologous recombination. In cells with mutation of BRCA1 or BRCA2, homologous recombination repair of DNA double strand breaks is defective, and cell death occurs after PARP1/2 inhibitor treatment (Lord C J, Ashworth A. PARP inhibitors: synthetic lethality in the clinic. Science. 2017 Mar. 17; 355(6330):1152-1158). Testing compounds in viability assays with the DLD-1-BR CA 2 (−/−) and DLD-1 parent cell enabled assessment on PARP1/2-dependent (cytotoxicity in the BRCA2 (−/−) cells only) vs. non-selective cytotoxicity in both cell lines.
(§3) Compound stock solutions (10 mM) were serially diluted in 3-fold increments in dimethyl sulfoxide (DMSO). Sample aliquots (120 nL) were dispensed into Corning® 384-well Flat Clear Bottom White Polystyrene TC-treated Microplates (Corning Life Sciences, Corning, NY, USA) using an ECHO® 550 acoustic Labcyte dispenser (Beckman-Coulter Life Sciences, Indianapolis, IN, USA) to achieve concentrations between 30 μM and 0.5 nM in the assay. In the assay, 40 μL of 500 DLD-1 parent cells (HORIZON® Therapeutics, Deerfield, IL, USA) or 40 μL of 1200 DLD-1-BRCA2 (−/−) cells (HORIZON Therapeutics) in complete growth medium containing RPMI 1640 growth medium (ThermoFisher Scientific, Waltham, MA, USA) supplemented with 20 mg/L L-glutamate, 25 mM HEPES (4-(2-hydroxyethyl)-1-piperazineethanesulfonic acid), 10% (v/v) heat inactivated FBS (fetal bovine serum), and 1% (w/v) Penicillin-Streptomycin were added.
(§4) Duplicate cell plates with 40 μL cells/well along with various concentrations of compounds were kept in Nunc™ Square BioAssay Dishes (Thermo Fisher Scientific) at 98% relative humidity in a 5% CO2 incubator at 37° C. for 6 days. On day 7, plates were moved to ambient lab conditions for 10 minutes until the temperature equilibrated. Following equilibration, CellTiter-Glo® Luminescent Cell Viability Assay reagent (Promega™, Madison, WI, USA) was added (15 μL) to each well of the plates. After a 20 minutes incubation, luminescence was detected using a ViewLux™ microplate imager (PerkinElmer, Waltham, MA, USA). Data analysis was performed using GraphPad Prism (Dotmatics, Boston, MA, USA).

DLD-1 BRCA2 (−/−) cells = assay: CellTiter-Glo DLD-1 BRCA2 (−/−) cell assay for PARP1/2 inhibition; assay type: cell-based; conditions: Homo sapiens, 144 h, 6 days, read-out: DLD-1 BRCA2 (−/−) CTG EC50
Text: as §2, §3, §4

TIPARP GST-(TEV) = TIPARP GST-(TEV) (Homo sapiens (Human), UniProt Q7Z3E1); assay: TR-FRET binding assay, TIPARP; conditions: for IC50: TR-FRET, Probe 1, 2 hours incubation; for PARP1/TIPARP IC50 Ratio: ratio of PARP1 GST IC50 to TIPARP GST-(TEV) IC50
Text: as §1, with “The full-length cDNA encoding the human TIPARP (NP_001171647.1, UniProtKB-Q7Z3E1) of 657 amino acids was the template to generate the expression construct. […] The TIPARP fusion protein includes GST, glutathione S-transferase, a 26 kDa protein whose DNA sequence is frequently integrated into expression vectors for production of recombinant proteins. A […], was cloned into vector pFastBacTM 1 (Thermo Fisher Scientific) with an N-terminal GST tag followed by a TEV protease site to produce the TIPARP fusion protein, TIPARP GST-(TEV). TR-FRET” for “TR-FRET”, “nm. […] [table]” for “nm.”

NCI-H1373 cells = assay: NCI-H1373 CellTiter-Glo cell assay for TIPARP inhibition; assay type: cell-based, human; conditions: Homo sapiens, NCI-H1373, 144 h; 6 days, 100 nM 10-Cl-BBQ in medium; read-out: NCI-H1373 CTG EC50
Procedure: The NCI-H1373 CellTiter-Glo® assay was used to determine cell numbers after TIPARP inhibition-induced cell cycle arrest, and enabled screening of compounds for cellular TIPARP inhibition potency.
Compound stock solutions (10 mM) were serially diluted in 3-fold increments in dimethyl sulfoxide. Sample aliquots (120 nL) were dispensed into Corning® 384-well Flat Clear Bottom White Polystyrene TC-treated Microplates (Corning Life Sciences, Corning, NY, USA) using an ECHO® 550 acoustic Labcyte dispenser (Beckman-Coulter Life Sciences, Indianapolis, IN, USA) to achieve final concentrations between 30 μM and 0.5 nM in the assay. This was followed by the addition of 40 μL of 1000 NCI-H1373 cells (ATCC®, Manassas, VA, USA) in complete growth medium RPMI 1640 growth medium (Thermo Fisher Scientific, Waltham, MA, USA) supplemented with 20 mg/L L-glutamate, 25 mM HEPES (4-(2-hydroxyethyl)-1-piperazineethanesulfonic acid), 10% (v/v) heat inactivated FBS (fetal bovine serum), 1% (w/v) penicillin-streptomycin, and 100 nM 10-Cl-BBQ (10-chloro-7H-benzimidazo[2,1-a]benz[de]isoquinolin-7-one, (Tocris, Minneapolis, MN, USA). Duplicate cell plates with 40 μL cells/well along with various concentrations of compounds were kept in Nunc™ Square BioAssay Dishes (Thermo Fisher Scientific) at 98% relative humidity in a 5% C02 incubator at 37° C. for 6 days. On day 7, plates were moved to ambient lab conditions for 10 minutes until the temperature equilibrated. Following equilibration, CellTiter-Glo® Luminescent Cell Viability Assay reagent (Promega™, Madison, WI, USA) was added (15 μL) to each well of the plates. After a 20 minutes incubation, luminescence was detected using a ViewLux™ microplate imager (PerkinElmer, Waltham, MA, USA). Data analysis was performed using GraphPad Prism (Dotmatics, Boston, MA, USA).

Sequence of TIPARP GST-(TEV) (Q7Z3E1 441-657): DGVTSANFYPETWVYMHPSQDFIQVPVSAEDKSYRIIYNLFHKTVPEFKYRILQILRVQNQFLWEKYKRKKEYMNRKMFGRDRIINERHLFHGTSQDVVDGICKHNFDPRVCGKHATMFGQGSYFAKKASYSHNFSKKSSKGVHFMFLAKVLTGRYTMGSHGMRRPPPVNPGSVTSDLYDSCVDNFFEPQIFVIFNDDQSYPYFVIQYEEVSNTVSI
Sequence of PARP1 GST (P09874 whole entry): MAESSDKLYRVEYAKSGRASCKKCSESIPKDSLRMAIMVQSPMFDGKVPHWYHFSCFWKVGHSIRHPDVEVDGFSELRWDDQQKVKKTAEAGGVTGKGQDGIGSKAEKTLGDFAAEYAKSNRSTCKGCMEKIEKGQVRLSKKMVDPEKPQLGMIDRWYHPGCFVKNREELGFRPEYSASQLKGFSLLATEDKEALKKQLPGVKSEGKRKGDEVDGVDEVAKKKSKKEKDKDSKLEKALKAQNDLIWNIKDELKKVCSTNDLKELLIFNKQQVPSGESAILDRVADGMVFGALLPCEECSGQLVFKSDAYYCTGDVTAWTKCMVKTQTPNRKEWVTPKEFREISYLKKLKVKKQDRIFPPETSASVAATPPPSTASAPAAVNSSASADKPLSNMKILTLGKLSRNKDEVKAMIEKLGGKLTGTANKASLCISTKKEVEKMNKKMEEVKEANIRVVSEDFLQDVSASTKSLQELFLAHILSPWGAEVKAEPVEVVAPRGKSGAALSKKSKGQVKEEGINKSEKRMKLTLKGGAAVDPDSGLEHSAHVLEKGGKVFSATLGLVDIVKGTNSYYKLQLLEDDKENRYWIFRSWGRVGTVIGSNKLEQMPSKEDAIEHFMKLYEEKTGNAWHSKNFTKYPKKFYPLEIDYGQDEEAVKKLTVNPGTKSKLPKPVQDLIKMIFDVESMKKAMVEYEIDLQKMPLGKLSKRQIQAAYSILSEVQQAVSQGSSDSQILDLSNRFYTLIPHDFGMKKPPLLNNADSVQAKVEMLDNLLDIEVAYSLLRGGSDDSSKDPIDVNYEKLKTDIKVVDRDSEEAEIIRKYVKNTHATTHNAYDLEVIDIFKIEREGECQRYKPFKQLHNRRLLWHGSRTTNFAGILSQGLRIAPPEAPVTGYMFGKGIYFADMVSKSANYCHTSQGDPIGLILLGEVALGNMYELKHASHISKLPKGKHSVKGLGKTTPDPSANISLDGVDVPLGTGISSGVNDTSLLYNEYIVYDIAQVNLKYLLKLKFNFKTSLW

SMILES	IC50 (PARP1 GST)	EC50 (DLD-1 parent cells)	EC50 (DLD-1 BRCA2 (−/−) cells)	IC50 (TIPARP GST-(TEV))	PARP1/TIPARP IC50 Ratio (TIPARP GST-(TEV))	EC50 (NCI-H1373 cells)
C[C@H]1CN(C(=O)[C@H]2C[C@@H](c3c[nH]c(=O)c(C(F)(F)F)c3)C2)CCN1c1ncc(C(C)(C)O)cn1 [Example 10, 5-[(1R,3s)-3-{(3S)-4-[5-(2-hydroxypropan-2-yl)pyrimidin-2-yl]-3-methylpiperazine-1-carbonyl}cyclobutyl]-3-(trifluoromethyl)pyridin-2(1H)-one]	3.08 µM	> 30 µM	> 30 µM	0.0101 µM	305	0.284 µM
C[C@H]1CN(c2ncc(C(C)(C)O)cn2)CCN1C(=O)[C@H]1C[C@@H](c2c[nH]c(=O)c(C(F)(F)F)c2)C1 [Example 11, 5-[(1R,3s)-3-{(2S)-4-[5-(2-hydroxypropan-2-yl)pyrimidin-2-yl]-2-methylpiperazine-1-carbonyl}cyclobutyl]-3-(trifluoromethyl)pyridin-2(1H)-one]	0.616 µM	16 µM	1.18 µM	0.0109 µM	56.5	0.337 µM
C[C@@H]1CN(c2ncc(C(F)(F)F)cn2)CCN1C(=O)[C@H]1C[C@@H](Cc2c[nH]c(=O)c(C(F)(F)F)c2)C1 [Example 12, 5-{[(1S,3s)-3-{(2R)-2-methyl-4-[5-(trifluoromethyl)pyrimidin-2-yl]piperazine-1-carbonyl}cyclobutyl]methyl}-3-(trifluoromethyl)pyridin-2(1H)-one]	3.65 µM	11.1 µM	5.48 µM	0.00316 µM	1160	0.0292 µM
C[C@@H]1CN(c2ncc(C(F)(F)F)cn2)C[C@H](C)N1C(=O)[C@H]1C[C@@H](Cc2c[nH]c(=O)c(C(F)(F)F)c2)C1 [Example 13, 5-{[(1s,3s)-3-{(2R,6S)-2,6-dimethyl-4-[5-(trifluoromethyl)pyrimidin-2-yl]piperazine-1-carbonyl}cyclobutyl]methyl}-3-(trifluoromethyl)pyridin-2(1H)-one]	7.38 µM	11.1 µM	6.96 µM	0.00379 µM	1950	0.0333 µM
C[C@@H]1CN(C(=O)[C@H]2C[C@@H](Cc3c[nH]c(=O)c(C(F)(F)F)c3)C2)C[C@H](C)N1c1ncc(C(F)(F)F)cn1 [Example 14, 5-{[(1s,3s)-3-{(3R,5S)-3,5-dimethyl-4-[5-(trifluoromethyl)pyrimidin-2-yl]piperazine-1-carbonyl}cyclobutyl]methyl}-3-(trifluoromethyl)pyridin-2(1H)-one]	4.11 µM	14.3 µM	4.49 µM	0.00217 µM	1890	0.0109 µM
C[C@@H]1CN(C(=O)[C@H]2C[C@@H](Cc3c[nH]c(=O)c(C(F)(F)F)c3)C2)CCN1c1ncc(C(F)(F)F)cn1 [Example 15, 5-{[(1S,3s)-3-{(3R)-3-methyl-4-[5-(trifluoromethyl)pyrimidin-2-yl]piperazine-1-carbonyl}cyclobutyl]methyl}-3-(trifluoromethyl)pyridin-2(1H)-one]	0.417 µM	10.3 µM	1.38 µM	0.00215 µM	194	0.0148 µM
C[C@H]1CN(C(=O)[C@H]2C[C@@H](Cc3c[nH]c(=O)c(C(F)(F)F)c3)C2)CCN1c1ncc(C(F)(F)F)cn1 [Example 16, 5-{[(1R,3s)-3-{(3S)-3-methyl-4-[5-(trifluoromethyl)pyrimidin-2-yl]piperazine-1-carbonyl}cyclobutyl]methyl}-3-(trifluoromethyl)pyridin-2(1H)-one]	1.16 µM	15.2 µM	0.997 µM	0.00334 µM	347	0.0191 µM
C[C@H]1CN(c2ncc(C(F)(F)F)cn2)CCN1C(=O)[C@H]1C[C@@H](Cc2c[nH]c(=O)c(C(F)(F)F)c2)C1 [Example 17, 5-{[(1R,3s)-3-{(2S)-2-methyl-4-[5-(trifluoromethyl)pyrimidin-2-yl]piperazine-1-carbonyl}cyclobutyl]methyl}-3-(trifluoromethyl)pyridin-2(1H)-one]	0.206 µM	9.75 µM	0.217 µM	0.005 µM	41.2	0.0341 µM
